# In patent US20130150376A1, “Novel Sultam Compounds” (PFIZER INC., priority 2010, published 2013):
# Where a name gives a salt, the structure may show the parent alone. Read-outs that look alike come from different tables or passages of the source.
# Target: T1, BACE1 enzyme (soluble, truncated BACE enzyme, BACE1deltaTM96His) (Homo sapiens, UniProt P56817)
# T1 construct: soluble, truncated BACE enzyme (BACE1deltaTM96His); His; made in house
# Assay: BACE1 Fluorescent Polarization (FP) Assay
# Type: biochemical
# Conditions: geometric mean of 2-4 IC50 determinations unless footnoted (^2: 5-6 determinations; ^4: single determination)
# Source text: BACE1 Fluorescent Polarization (FP) Assay
# The fluorescently tagged synthetic substrate, Biotin-GLTNIKTEEISEISŶEVEFR-C[oregon green]KK-OH can be efficiently cleaved by the beta-secretase enzyme and is therefore useful to assay beta-secretase activity in the presence or absence of inhibitory compounds. The his tagged BACE1 enzyme was affinity purified material from conditioned media of CHO-K1 cells that had been transfected to express soluble, truncated BACE enzyme (BACE1deltaTM96His). Compounds were incubated in a ½ log dose response (from a top concentration of 100 μM) with BACE1 enzyme (0.1 nM final) and the biotinylated fluorescent peptide substrate (150 nM final) in assay buffer containing 100 mM sodium acetate, pH 4.5 (brought to pH with acetic acid), and 0.001% Tween-20. Total reaction volumes of 30 μL were carried out in 384-well black plates (Thermo Scientific 4318). Plates were covered and incubated for 3 hours at 37° C. The reactions were then stopped by addition of 30 μL of 1.5 μM Streptavidin (Pierce, 21125). After a 10 minute incubation at room temperature, plates were read on a PerkinElmer Envision for fluorescence polarization (Ex485 nm/Em530 nm). The activity of the beta-secretase enzyme is detected by changes in the fluorescence polarization (Δ mP) that occur when the substrate is cleaved by the enzyme.
# [1] = 8-point curve, read-out: BACE activity, 8-point curve, IC50
# [2] = 11-point curve, read-out: BACE activity, 11-point curve, IC50
# T1 sequence (P56817 46-457): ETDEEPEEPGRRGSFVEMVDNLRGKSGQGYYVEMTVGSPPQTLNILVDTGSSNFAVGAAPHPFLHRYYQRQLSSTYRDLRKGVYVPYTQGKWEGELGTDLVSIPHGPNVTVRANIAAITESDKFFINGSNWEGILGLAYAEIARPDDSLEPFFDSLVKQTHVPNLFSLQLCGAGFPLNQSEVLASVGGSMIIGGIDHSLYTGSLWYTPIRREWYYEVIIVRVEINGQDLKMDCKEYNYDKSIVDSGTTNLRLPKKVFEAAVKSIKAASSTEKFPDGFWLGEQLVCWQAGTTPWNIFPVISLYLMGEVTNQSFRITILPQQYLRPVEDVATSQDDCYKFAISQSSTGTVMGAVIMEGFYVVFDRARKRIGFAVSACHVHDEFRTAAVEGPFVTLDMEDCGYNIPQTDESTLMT
SMILES,IC50 [1] [nM],IC50 [2] [nM]
"C[C@H]1C[C@@]2(C=CS(=O)(=O)N2c2cccc(F)c2)CCN1Cc1scnc1CC1CC1 [Example 24, (5R,7S)-8-{[4-(cyclopropylmethyl)-1,3-thiazol-5-yl]methyl}-1-(3-fluorophenyl)-7-methyl-2-thia-1,8-diazaspiro[4.5]dec-3-ene 2,2-dioxide, hydrochloride salt]",51.9,353
"Cc1ccccc1-c1cc(CN2CC[C@]3(C=CS(=O)(=O)N3c3cccc(F)c3)C[C@@H]2C)ccc1O [Example 25, 5-{[(5R,7S)-1-(3-fluorophenyl)-7-methyl-2,2-dioxido-2-thia-1,8-diazaspiro[4.5]dec-3-en-8-yl]methyl}-2′-methylbiphenyl-2-ol, hydrochloride salt]",14.3,28.4
"CCOc1cc(CN2CC[C@]3(C=CS(=O)(=O)N3c3cccc(F)c3)C[C@@H]2C)ccc1O [Example 27, 2-ethoxy-4-{[(5R,7S)-1-(3-fluorophenyl)-7-methyl-2,2-dioxido-2-thia-1,8-diazaspiro[4.5]dec-3-en-8-yl]methyl}phenol]",116,269
"CC(C)Oc1cccc(CN2CC[C@]3(CCS(=O)(=O)N3c3cccc(F)c3)C[C@@H]2C)c1 [Example 28, (5R,7S)-1-(3-fluorophenyl)-8-(3-isopropoxybenzyl)-7-methyl-2-thia-1,8-diazaspiro[4.5]decane 2,2-dioxide]",521,2160
"C[C@H]1C[C@]2(CCN1Cc1ccc(O)c(Cl)c1)CCS(=O)(=O)N2c1cccc(F)c1 [Example 29, 2-chloro-4-{[(5R7S)-1-(3-fluorophenyl)-7-methyl-2,2-dioxido-2-thia-1,8-diazaspiro[4.5]dec-8-yl]methyl}phenol, hydrochloride salt]",332,1530
"C[C@H]1C[C@]2(CCN1Cc1ncoc1-c1cccnc1)CCS(=O)(=O)N2c1cccc(F)c1 [Example 32, (5R,7S)-1-(3-fluorophenyl)-7-methyl-8-[(5-pyridin-3-yl-1,3-oxazol-4-yl)methyl]-2-thia-1,8-diazaspiro[4.5]decane 2,2-dioxide, hydrochloride salt]",,4290
"C[C@H]1C[C@]2(CCN1Cc1ncoc1-c1cncnc1)CCS(=O)(=O)N2c1cccc(F)c1 [Example 33, (5R,7S)-1-(3-fluorophenyl)-7-methyl-8-[(5-pyrimidin-5-yl-1,3-oxazol-4-yl)methyl]-2-thia-1,8-diazaspiro[4.5]decane 2,2-dioxide, hydrochloride salt]",,3030
"C[C@H]1C[C@@]2(C=CS(=O)(=O)N2c2cccc(F)c2)CCN1Cc1ncoc1-c1cccs1 [Example 34, (5R,7S)-1-(3-fluorophenyl)-7-methyl-8-{[5-(2-thienyl)-1,3-oxazol-4-yl]methyl}-2-thia-1,8-diazaspiro[4.5]dec-3-ene 2,2-dioxide, hydrochloride salt]",,5890
"C[C@H]1C[C@@]2(C=CS(=O)(=O)N2c2cccc(F)c2)CCN1Cc1ncoc1-c1cncs1 [Example 35, (5R,7S)-1-(3-fluorophenyl)-7-methyl-8-{[5-(1,3-thiazol-5-yl}-1,3-oxazol-4-yl]methyl}-2-thia-1,8-diazaspiro[4.5]dec-3-ene 2,2-dioxide]",2180,3000
"Cc1ncsc1-c1ocnc1CN1CC[C@]2(C=CS(=O)(=O)N2c2cccc(F)c2)C[C@@H]1C [Example 36, (5R,7S)-1-(3-fluorophenyl)-7-methyl-8-{[5-(4-methyl-1,3-thiazol-5-yl)-1,3-oxazol-4-yl]methyl}-2-thia-1,8-diazaspiro[4.5]dec-3-ene 2,2-dioxide]",2510,6290
"Cc1ccsc1-c1ocnc1CN1CC[C@]2(C=CS(=O)(=O)N2c2cccc(F)c2)C[C@@H]1C [Example 37, (5R,7S)-1-(3-fluorophenyl)-7-methyl-8-{[5-(3-methyl-2-thienyl)-1,3-oxazol-4-yl]methyl}-2-thia-1,8-diazaspiro[4.5]dec-3-ene 2,2-dioxide]",1820,2840
"Cc1cncc(-c2ocnc2CN2CC[C@]3(C=CS(=O)(=O)N3c3cccc(F)c3)C[C@@H]2C)c1 [Example 38, (5R,7S)-1-(3-fluorophenyl)-7-methyl-8-{[5-(5-methylpyridin-3-yl)-1,3-oxazol-4-yl]methyl}-2-thia-1,8-diazaspiro[4.5]dec-3-ene 2,2-dioxide]",752,2780
"Cc1ccncc1-c1cccc(CN2CC[C@]3(C=CS(=O)(=O)N3c3cccc(F)c3)C[C@@H]2C)c1 [Example 39, (5R,7S)-1-(3-fluorophenyl)-7-methyl-8-[3-(4-methylpyridin-3-yl)benzyl]-2-thia-1,8-diazaspiro[4.5]dec-3-ene 2,2-dioxide, hydrochloride salt]",79.5,414
"C[C@H]1C[C@@]2(C=CS(=O)(=O)N2c2cccc(F)c2)CCN1Cc1ncoc1-c1cncc(F)c1 [Example 40, (5R,7S)-1-(3-fluorophenyl)-8-{[5-(5-fluoropyridin-3-yl)-1,3-oxazol-4-yl]methyl}-7-methyl-2-thia-1,8-diazaspiro[4.5]dec-3-ene 2,2-dioxide, hydrochloride salt]",1380,2380
"C[C@H]1C[C@@]2(C=CS(=O)(=O)N2c2cccc(F)c2)CCN1Cc1ccc2[nH]ccc2c1 [Example 41, (5R,7S)-1-(3-fluorophenyl)-8-(1H-indol-5-ylmethyl)-7-methyl-2-thia-1,8-diazaspiro[4.5]dec-3-ene 2,2-dioxide]",703,2380
"COc1ccc2[nH]c(CN3CC[C@]4(C=CS(=O)(=O)N4c4cccc(F)c4)C[C@@H]3C)cc2c1 [Example 42, (5R,7S)-1-(3-fluorophenyl)-8-[(5-methoxy-1H-indol-2-yl)methyl]-7-methy1-2-thia-1,8-diazaspiro[4.5]dec-3-ene 2,2-dioxide]",117,2220
"C[C@H]1C[C@@]2(C=CS(=O)(=O)N2c2cccc(F)c2)CCN1Cc1scnc1-c1cncnc1 [Example 43, (5R,7S)-1-(3-fluorophenyl)-7-methyl-8-[(4-pyrimidin-5-yl-1,3-thiazol-5-yl)methyl]-2-thia-1,8-diazaspiro[4.5]dec-3-ene 2,2-dioxide]",975,8250
"C[C@H]1C[C@@]2(C=CS(=O)(=O)N2c2cccc(F)c2)CCN1Cc1scnc1-c1cncc(F)c1 [Example 44, (5R,7S)-1-(3-fluorophenyl)-8-{[4-(5-fluoropyridin-3-yl)-1,3-thiazol-5-yl]methyl}-7-methyl-2-thia-1,8-diazaspiro[4.5]dec-3-ene 2,2-dioxide, hydrochloride salt]",3070,8460
"Cc1ccsc1-c1ncsc1CN1CC[C@]2(C=CS(=O)(=O)N2c2cccc(F)c2)C[C@@H]1C [Example 45, (5R,7S)-1-(3-fluorophenyl)-7-methyl-8-{[4-(3-methyl-2-thienyl)-1,3-thiazol-5-yl]methyl}-2-thia-1,8-diazaspiro[4.5]dec-3-ene 2,2-dioxide]",5600,15300
"C[C@H]1C[C@@]2(C=CS(=O)(=O)N2c2cccc(F)c2)CCN1Cc1scnc1-c1cccnc1 [Example 48, (5R,7S)-1-(3-fluorophenyl)-7-methyl-8-[(4-pyridin-3-yl-1,3-thiazol-5-yl)methyl]-2-thia-1,8-diazaspiro[4.5]dec-3-ene 2,2-dioxide]",5600,9030
"Cc1cncc(-c2ncsc2CN2CC[C@]3(C=CS(=O)(=O)N3c3cccc(F)c3)C[C@@H]2C)c1 [Example 49, (5R,7S)-1-(3-fluorophenyl)-7-methyl-8-{[4-(5-methylpyridin-3-yl)-1,3-thiazol-5-yl]methyl}-2-thia-1,8-diazaspiro[4.5]dec-3-ene 2,2-dioxide, hydrochloride salt]",6720,15200
"Cc1ccncc1-c1ncsc1CN1CC[C@]2(C=CS(=O)(=O)N2c2cccc(F)c2)C[C@@H]1C [Example 50, (5R,7S)-1-(3-fluorophenyl)-7-methyl-8-{[4-(4-methylpyridin-3-yl)-1,3-thiazol-5-yl]methyl}-2-thia-1,8-diazaspiro[4.5]dec-3-ene 2,2-dioxide, hydrochloride salt]",7180,25600
"C[C@H]1C[C@]2(CCN1Cc1ccc3[nH]ccc3c1)CCS(=O)(=O)N2c1cccc(F)c1 [Example 51, (5R,7S)-1-(3-fluorophenyl)-8-(1H-indol-5-ylmethyl)-7-methyl-2-thia-1,8-diazaspiro[4.5]decane 2,2-dioxide]",2080,5640
"Cc1ccccc1-c1cccc(CN2CC[C@]3(CCS(=O)(=O)N3c3cccc(F)c3)C[C@@H]2C)c1 [Example 52, (5R,7S)-1-(3-fluorophenyl)-7-methyl-8-[(2′-methylbiphenyl-3-yl)methyl]-2-thia-1,8-diazaspiro[4.5]decane 2,2-dioxide, formate salt]",40.5,
